Six compounds from patent US5631222A, “Endothelin-antagonizing peptide” (Kyowa Hakko Kogyo Co., Ltd., priority 1993, dated 1997) can be followed below.

Positions of bridges follow the written chain, without caps; N, C: chain ends. Non-standard residues stand in square brackets, D forms with d. Residues, ends and D or L forms follow the SMILES beside them. 2Thi = N[C@@H](Cc1cccs1)C(=O)O; NMeL = CN[C@@H](CC(C)C)C(=O)O

For the assay, the target named is T1, endothelin receptor (Bos taurus, UniProt P28088).
T1 construct: the suspension was used as a membrane fraction liquid; from tissue; host or cells: bovine cerebellum membrane fraction
T1 sequence (P28088 27-441): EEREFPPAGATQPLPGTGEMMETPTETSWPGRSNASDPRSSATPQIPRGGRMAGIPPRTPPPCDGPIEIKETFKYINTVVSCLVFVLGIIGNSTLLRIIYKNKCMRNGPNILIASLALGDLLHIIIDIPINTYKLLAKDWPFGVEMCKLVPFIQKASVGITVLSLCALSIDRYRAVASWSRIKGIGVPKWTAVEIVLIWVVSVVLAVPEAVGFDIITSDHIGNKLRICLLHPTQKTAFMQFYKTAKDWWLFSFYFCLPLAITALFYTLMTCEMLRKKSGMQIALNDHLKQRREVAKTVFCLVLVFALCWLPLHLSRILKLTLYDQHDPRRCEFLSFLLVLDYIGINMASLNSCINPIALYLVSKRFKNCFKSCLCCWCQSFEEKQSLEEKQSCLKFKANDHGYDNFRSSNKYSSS
The experiment in a line: Endothelin receptor-antagonizing activity: inhibition of 125I-endothelin-1 binding to bovine cerebellum membrane fraction. To be noted: 125I-Endothelin-1, bovine cerebellum membrane fraction, 25° C. for 2 hours; read-out: IC50: Concentration causing 50% inhibition of endothelin1 binding. The protocol: Bovine cerebellum tissue was homogenized at 4° C. by using POLYTRON (type PT10/35, manufactured by Kinematic Gmbh Co.) in a buffer solution A (1 mM NaHCO3, 5 mM ethylenediaminetetraacetic acid, 5 μg/ml leupeptin, 5 μg/ml pepstatin A, 40 μM phenylmethylsulfonyl fluoride, pH 8.3).
The obtained suspension was centrifuged for 10 minutes at 8,000 G and 4° C., and the resulting supernatant was centrifuged for 60 minutes at 40,000 G and 4° C. to obtain pellets. The obtained pellets were suspended in a buffer solution A and again centrifuged for 60 minutes at 40,000 G and 4° C. The resulting solid substance was prepared as a suspension containing 2 mg/ml of protein, and the suspension was used as a membrane fraction liquid. […] These mixtures were incubated at 25° C. for 2 hours, and then filtered with a GF/B glass filter (produced by Whatman Co.). […] The inhibition ratio against endothelin receptor binding activity was calculated according to the following equation:
Inhibition ratio (%)=(C-A/C-B)×100
B: Radioactivity in the presence of unlabelled endothelin-1
C: Radioactivity in the absence of both of the compound shown in Table 2 and unlabelled endothelin-1

As to `CC[C@H](C)[C@H](NC(=O)[C@H](Cc1cccs1)NC(=O)[C@@H](NC(=O)[C@H](CC(C)C)NC(=O)[C@H](Cc1c[nH]cn1)NC(=O)[C@H](C)NC(=O)[C@H](Cc1ccccc1)NC(=O)[C@H](Cc1ccc(O)cc1)NC(=O)[C@@H](NC(=O)[C@H](Cc1c[nH]c2ccccc12)NC(=O)[C@H](CC(=O)O)NC(=O)[C@@H]1CCCN1C(=O)[C@H](C)NC(=O)[C@@H](NC(=O)CNC(=O)[C@H](Cc1c[nH]cn1)NC(=O)[C@H](Cc1c[nH]c2ccccc12)NC(=O)[C@H](CC(N)=O)NC(=O)CN)[C@@H](C)O)C(C)C)[C@@H](C)O)C(=O)N[C@H](Cc1c[nH]c2ccccc12)C(=O)O` [Compound 42, HGlyAsnTrpHisGlyThrAlaProAspTrpValTyrPheAlaHisLeuThrThiIleD-TrpOH] (H-GNWHGTAPDWVYFAHLT[2Thi]I[dW]-OH), the IC50 is 210 nM.
The same measure for `CC[C@H](C)[C@H](NC(=O)[C@H](CC(C)C)NC(=O)[C@@H](NC(=O)[C@H](CC(C)C)NC(=O)[C@H](Cc1c[nH]cn1)NC(=O)[C@H](C)NC(=O)[C@H](Cc1ccccc1)NC(=O)[C@H](Cc1ccc(O)cc1)NC(=O)[C@@H](NC(=O)[C@H](Cc1c[nH]c2ccccc12)NC(=O)[C@@H]1CSSC[C@H](N)C(=O)N[C@@H](CC(N)=O)C(=O)N[C@@H](Cc2c[nH]c3ccccc23)C(=O)N[C@@H](Cc2c[nH]cn2)C(=O)NCC(=O)N[C@@H]([C@@H](C)O)C(=O)N[C@@H](C)C(=O)N2CCC[C@H]2C(=O)N1)C(C)C)[C@@H](C)O)C(=O)N[C@@H](Cc1c[nH]c2ccccc12)C(=O)O` [Compound 37] (H-CNWHGTAPCWVYFAHLTLIW-OH; disulfide 1-9): 8.7 nM.
The value for `CC[C@H](C)[C@H](NC(=O)[C@H](CC(C)C)N(C)C(=O)[C@@H](NC(=O)[C@H](CC(C)C)NC(=O)[C@H](Cc1c[nH]cn1)NC(=O)[C@H](C)NC(=O)[C@H](Cc1ccccc1)NC(=O)[C@H](Cc1ccc(O)cc1)NC(=O)[C@@H](NC(=O)[C@H](Cc1c[nH]c2ccccc12)NC(=O)[C@H](CC(=O)O)NC(=O)[C@@H]1CCCN1C(=O)[C@H](C)NC(=O)[C@@H](NC(=O)CNC(=O)[C@H](Cc1c[nH]cn1)NC(=O)[C@H](Cc1c[nH]c2ccccc12)NC(=O)[C@H](CC(N)=O)NC(=O)CN)[C@@H](C)O)C(C)C)[C@@H](C)O)C(=O)N[C@@H](Cc1c[nH]c2ccccc12)C(=O)O` [Compound 23, HGlyAsnTrpHisGlyThrAlaProAspTrpValTyrPheAlaHisLeuThrMeLeuIleTrpOH] (H-GNWHGTAPDWVYFAHLT[NMeL]IW-OH) was 54 nM; that for `CC[C@H](C)[C@H](NC(=O)[C@H](CC(=O)O)NC(=O)[C@H](CC(C)C)NC(=O)[C@H](Cc1c[nH]cn1)NC(=O)[C@H](C)NC(=O)[C@H](Cc1ccccc1)NC(=O)[C@H](Cc1ccc(O)cc1)NC(=O)[C@@H](NC(=O)[C@H](Cc1c[nH]c2ccccc12)NC(=O)[C@@H]1CC(=O)NCC(=O)N[C@@H](Cc2ccc(O)cc2)C(=O)N2CCC[C@H]2C(=O)N[C@@H](Cc2c[nH]c3ccccc23)C(=O)N[C@@H](Cc2c[nH]c3ccccc23)C(=O)N[C@@H](CC(N)=O)C(=O)N[C@@H](Cc2ccc(O)cc2)C(=O)N[C@@H](CCCNC(=N)N)C(=O)N1)C(C)C)C(=O)N[C@H](C(=O)N[C@@H](Cc1c[nH]c2ccccc12)C(=O)O)[C@@H](C)CC` [Compound 52] (GYPWWNYRDWVYFAHLDIIW-OH; lactam N-9) was 19 nM.
On to “H-HGTAPDWVYFAHLDIIW-OH [Compound 9, HHisGlyThrAlaProAspTrpValTyrPheAlaHisLeuAspIleIleTrpOH]”, for which the IC50 was 0.088 nM.
The value for `CC[C@H](C)[C@@H]1NC(=O)[C@H](Cc2ccccc2)NC(=O)CNC(=O)C[C@@H](C(=O)N[C@@H](Cc2c[nH]c3ccccc23)C(=O)N[C@H](C(=O)N[C@@H](Cc2ccc(O)cc2)C(=O)N[C@@H](Cc2ccccc2)C(=O)N[C@@H](C)C(=O)N[C@@H](Cc2c[nH]cn2)C(=O)N[C@@H](CC(C)C)C(=O)N[C@@H](CC(=O)O)C(=O)N[C@H](C(=O)N[C@H](C(=O)N[C@@H](Cc2c[nH]c3ccccc23)C(=O)O)[C@@H](C)CC)[C@@H](C)CC)C(C)C)NC(=O)[C@H](CC(N)=O)NC(=O)CNC(=O)[C@H](Cc2c[nH]c3ccccc23)NC(=O)CNC1=O` [Compound 51] (GFIGWGNDWVYFAHLDIIW-OH; lactam N-8) was 3.3 nM.
